Source: PubChem BioAssay (NCI)
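Here, GI50 denotes the concentration required for 50% inhibition of growth. TGI: total growth inhibition.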

Columns and labels:
Test in all cases: NCI-60 cell line screen, 384-well format
786-0 renal = system: 786-0 renal
A498 renal = system: A498 renal
A549 NSCLC = system: A549 NSCLC
ACHN renal = system: ACHN renal
BT-549 breast = system: BT-549 breast
CAKI-1 renal = system: CAKI-1 renal
CCRF-CEM leukemia = system: CCRF-CEM leukemia
COLO 205 colon = system: COLO 205 colon
DU-145 prostate = system: DU-145 prostate
HCT-116 colon = system: HCT-116 colon
HCT-15 colon = system: HCT-15 colon
HL-60(TB) leukemia = system: HL-60(TB) leukemia
HOP-62 NSCLC = system: HOP-62 NSCLC
HOP-92 NSCLC = system: HOP-92 NSCLC
HT29 colon = system: HT29 colon
IGROV1 ovarian = system: IGROV1 ovarian
K-562 leukemia = system: K-562 leukemia
KM12 colon = system: KM12 colon
LOX IMVI melanoma = system: LOX IMVI melanoma
M14 melanoma = system: M14 melanoma
MALME-3M melanoma = system: MALME-3M melanoma
MCF7 breast = system: MCF7 breast
MDA-MB-231 breast = system: MDA-MB-231 breast
MDA-MB-435 melanoma = system: MDA-MB-435 melanoma
MDA-MB-468 breast = system: MDA-MB-468 breast
MOLT-4 leukemia = system: MOLT-4 leukemia
NCI-H226 lung = system: NCI-H226 lung
NCI-H23 lung = system: NCI-H23 lung
NCI-H322M lung = system: NCI-H322M lung
NCI-H460 NSCLC = system: NCI-H460 NSCLC
NCI-H522 lung = system: NCI-H522 lung
NCI/ADR-RES ovarian = system: NCI/ADR-RES ovarian
OVCAR-3 ovarian = system: OVCAR-3 ovarian
OVCAR-4 ovarian = system: OVCAR-4 ovarian
OVCAR-5 ovarian = system: OVCAR-5 ovarian
OVCAR-8 ovarian = system: OVCAR-8 ovarian
PC-3 prostate = system: PC-3 prostate
RPMI-8226 leukemia = system: RPMI-8226 leukemia
RXF 393 renal = system: RXF 393 renal
SF-268 CNS = system: SF-268 CNS
SF-295 CNS = system: SF-295 CNS
SF-539 CNS = system: SF-539 CNS
SK-MEL-2 melanoma = system: SK-MEL-2 melanoma
SK-MEL-28 melanoma = system: SK-MEL-28 melanoma
SK-MEL-5 melanoma = system: SK-MEL-5 melanoma
SK-OV-3 ovarian = system: SK-OV-3 ovarian
SN12C renal = system: SN12C renal
SNB-19 CNS = system: SNB-19 CNS
SR leukemia = system: SR leukemia
SW-620 colon = system: SW-620 colon
T-47D breast = system: T-47D breast
TK-10 renal = system: TK-10 renal
U251 glioblastoma = system: U251 glioblastoma
UACC-257 melanoma = system: UACC-257 melanoma
UACC-62 melanoma = system: UACC-62 melanoma
UO-31 renal = system: UO-31 renal

Structure (SMILES): CC(C)(/C=C(\C#N)C(=O)N1CCC[C@@H](n2nc(-c3ccc(Oc4ccccc4)cc3F)c3c(N)ncnc32)C1)N1CCN(C2COC2)CC1
- GI50 ([…]-0 renal): 3.07 µM
- TGI (786-0 renal): 10.4 µM
- GI50 (A498 renal): 2.39 µM
- TGI (A498 renal): 5.72 µM
- GI50 (A549 NSCLC): 3.55 µM
- TGI (A549 NSCLC): 13.2 µM
- GI50 (ACHN renal): 9.03 µM
- TGI (ACHN renal): 21.2 µM
- GI50 (BT-549 breast): 1.21 µM
- TGI (BT-549 breast): 2.78 µM
- GI50 (CAKI-1 renal): 3.41 µM
- TGI (CAKI-1 renal): 9.34 µM
- GI50 (CCRF-CEM leukemia): 1.49 µM
- TGI (CCRF-CEM leukemia): 2.86 µM
- GI50 (COLO 205 colon): 1.63 µM
- TGI (COLO 205 colon): 5.8 µM
- GI50 (DU-145 prostate): 9.84 µM
- TGI (DU-145 prostate): 29.1 µM
- GI50 (HCT-116 colon): 2.9 µM
- TGI (HCT-116 colon): 10.6 µM
- GI50 (HCT-15 colon): 4.52 µM
- TGI (HCT-15 colon): 15.1 µM
- GI50 (HL-60(TB) leukemia): 1.5 µM
- TGI (HL-60(TB) leukemia): 2.89 µM
- GI50 (HOP-62 NSCLC): 2.47 µM
- TGI (HOP-62 NSCLC): 5.82 µM
- GI50 (HOP-92 NSCLC): 1.38 µM
- TGI (HOP-92 NSCLC): 3.76 µM
- GI50 (HT29 colon): 1.73 µM
- TGI (HT29 colon): 3.48 µM
- GI50 (IGROV1 ovarian): 2.94 µM
- TGI (IGROV1 ovarian): 9.69 µM
- GI50 (K-562 leukemia): 1.24 µM
- TGI (K-562 leukemia): 2.82 µM
- GI50 (KM12 colon): 0.712 µM
- TGI (KM12 colon): 2.47 µM
- GI50 (LOX IMVI melanoma): 2.3 µM
- TGI (LOX IMVI melanoma): 4.09 µM
- GI50 (M14 melanoma): 2.08 µM
- TGI (M14 melanoma): 5.29 µM
- GI50 (MALME-3M melanoma): 1.28 µM
- TGI (MALME-3M melanoma): 5.26 µM
- GI50 (MCF7 breast): 2.28 µM
- TGI (MCF7 breast): 10.4 µM
- GI50 (MDA-MB-231 breast): 2.54 µM
- TGI (MDA-MB-231 breast): 7.28 µM
- GI50 (MDA-MB-435 melanoma): 0.0551 µM
- TGI (MDA-MB-435 melanoma): 0.448 µM
- GI50 (MDA-MB-468 breast): 0.239 µM
- TGI (MDA-MB-468 breast): 1.16 µM
- GI50 (MOLT-4 leukemia): 0.157 µM
- TGI (MOLT-4 leukemia): 0.46 µM
- GI50 (NCI-H226 lung): 2.18 µM
- TGI (NCI-H226 lung): 5.42 µM
- GI50 (NCI-H23 lung): 3.51 µM
- TGI (NCI-H23 lung): 9.62 µM
- GI50 (NCI-H322M lung): 6.84 µM
- TGI (NCI-H322M lung): 23.2 µM
- GI50 (NCI-H460 NSCLC): 1.87 µM
- TGI (NCI-H460 NSCLC): 3.72 µM
- GI50 (NCI-H522 lung): 0.164 µM
- TGI (NCI-H522 lung): 1.36 µM
- GI50 (NCI/ADR-RES ovarian): 13.8 µM
- TGI (NCI/ADR-RES ovarian): 27.1 µM
- GI50 (OVCAR-3 ovarian): 0.289 µM
- TGI (OVCAR-3 ovarian): 1.6 µM
- GI50 (OVCAR-4 ovarian): 1.35 µM
- TGI (OVCAR-4 ovarian): 7.72 µM
- GI50 (OVCAR-5 ovarian): 10.5 µM
- TGI (OVCAR-5 ovarian): 22.9 µM
- GI50 (OVCAR-8 ovarian): 5.91 µM
- TGI (OVCAR-8 ovarian): 18 µM
- GI50 (PC-3 prostate): 3.73 µM
- TGI (PC-3 prostate): 13.8 µM
- GI50 (RPMI-8226 leukemia): 1.14 µM
- TGI (RPMI-8226 leukemia): 2.38 µM
- GI50 (RXF 393 renal): 1.19 µM
- TGI (RXF 393 renal): 3.04 µM
- GI50 (SF-268 CNS): 2.29 µM
- TGI (SF-268 CNS): 7.3 µM
- GI50 (SF-295 CNS): 9.51 µM
- TGI (SF-295 CNS): 21.5 µM
- GI50 (SF-539 CNS): 2.08 µM
- TGI (SF-539 CNS): 5.39 µM
- GI50 (SK-MEL-2 melanoma): 0.0857 µM
- TGI (SK-MEL-2 melanoma): 1.08 µM
- GI50 (SK-MEL-28 melanoma): 1.86 µM
- TGI (SK-MEL-28 melanoma): 5.23 µM
- GI50 (SK-MEL-5 melanoma): 1.41 µM
- TGI (SK-MEL-5 melanoma): 2.92 µM
- GI50 (SK-OV-3 ovarian): 1.23 µM
- TGI (SK-OV-3 ovarian): 3 µM
- GI50 (SN12C renal): 2.82 µM
- TGI (SN12C renal): 7.62 µM
- GI50 (SNB-19 CNS): 3.69 µM
- TGI (SNB-19 CNS): 12.1 µM
- GI50 (SR leukemia): 0.0378 µM
- TGI (SR leukemia): 0.208 µM
- GI50 (SW-620 colon): 1.87 µM
- TGI (SW-620 colon): 3.63 µM
- GI50 (T-47D breast): 2.33 µM
- TGI (T-47D breast): 11 µM
- GI50 (TK-10 renal): 6.64 µM
- TGI (TK-10 renal): 18.9 µM
- GI50 (U251 glioblastoma): 2.6 µM
- TGI (U251 glioblastoma): 8.45 µM
- GI50 (UACC-257 melanoma): 1.49 µM
- TGI (UACC-257 melanoma): 3.81 µM
- GI50 (UACC-62 melanoma): 1.12 µM
- TGI (UACC-62 melanoma): 3.24 µM
- GI50 (UO-31 renal): 7.98 µM
- TGI (UO-31 renal): 20.3 µM
